Tests used:
[1] = test system: IDH mutant (HT-1080, R132C IDH1 mutation) chondrosarcoma cells; assay: Viability and apoptosis of chondrosarcoma cells; assay type: cell-based; details: 48 hours
Description: IDH mutant (HT-1080, R132C IDH1 mutation) chondrosarcoma cells were treated with different doses of ATRA or DMSO for 48 hours. After treatment, cells were evaluated for viability (FIG. 11A) and apoptosis by caspase activity (FIG. 11B). […] Additionally, IDH WT cells and IDH mutant chondrosarcoma cells were treated with different doses of ATRA or DMSO for 48 hours.

[2] = test system: ATRA-treated IDH mutant tumors; assay: Ex vivo NK killing of resected tumors; assay type: cell-based, mice; details: vs DMSO-treated control tumors
Description: ATRA promotes tumor stasis in IDH mutant tumor-bearing mice. To determine the value of ATRA as a therapeutic modality, its anti-tumor efficacy in vivo was evaluated. Athymic nude mice were implanted with 10^6 IDH mutant or WT primary glioma cells in the flank. 21 days after tumor inoculation (when tumors were about 25 mm^2), 10 mg/kg ATRA was administered every other day for 21 days. Tumors were measured every 3 days. […] Resected tumors from ATRA or DMSO-treated mice were digested to obtain single cell suspensions and assessed for killing by human and mouse NK cells ex vivo.

[3] = test system: NKG2D ligands in IDH mutant cells; assay: qPCR of NKG2D ligand expression in ATRA-treated glioma cells; assay type: cell-based, human; details: 1 μM ATRA 48 hours, vs DMSO-treated cells
Description: All-trans Retinoic acid (ATRA) treatment of astrocytes and primary glioma cells. ATRA was purchased from Sigma Aldrich® and reconstituted in DMSO. ATRA was added at a 1 μM final concentration to cell culture medium for 48 hours. After treatment, the cells either lysed in Trizol™ for qPCR analysis, or were used in NK cytotoxicity assays.
Quantitative Real time RT-PCR. 5×10^5 IDH mutant and WT astrocytes, as well as patient glioma cells were lyzed in Trizol and RNA was extracted from the cells using the Chloroform extraction method. cDNA was transcribed from the RNA using iScript cDNA synthesis kit (BioRad). Real-time PCR was performed on an CFX96 Touch™ Real-Time PCR Detection System (Bio-Rad) equipped with a 96-well reaction plate. Briefly, 2 μL cDNA was added to 5 μL of the 2×SYBR Green PCR mastermix (Thermo Scientific), 800 nM of each primer, and water was added to 10 μL. The thermal denaturation protocol was run at the end of the PCR to determine the number of products that were present in the reaction. Reactions were typically run in triplicates. The cycle number at which the reaction crossed an arbitrarily-placed threshold (CT) was determined for each gene and the relative amount of each gene to 18 S rRNA was described using the equation 2^−ΔCT where ΔCT=(CTtargetRNA−CT18S rRNA).
ATRA induced increased cytotoxic killing of IDH mutant cells in an NKG2D-ligand dependent manner. The ability of ATRA to sensitize IDH mutant cells to killing by NK cells was evaluated. For this purpose, IDH mutant and WT cells were treated with 1 μM ATRA for 48 hours and assessed for killing by NK-92 cells (ATCC) at a 10:1 E:T ratio. […] Also, as observed in vivo, increased NK-92 killing in IDH mutant cells was dependent upon NKG2D engagement. […] ATRA-treated cells were also evaluated for expression of NKG2D ligands.

[4] = test system: ATRA-treated IDH mutant cells; assay: Transwell chemotaxis assay of immune cell subsets; assay type: cell-based, human
Description: (§1) ATRA increases chemotaxis towards IDH mutant cells in a CCL2-dependent manner. […] To confirm these findings, chemotaxis assays were performed in vitro. ATRA-treated IDH mutant or WT cells were plated in the bottom well of a transwell. Different immune cell subsets (as indicated) were placed in the top chamber at a 10:1 E:T ratio. After 48 hours, cells from the bottom chamber were harvested and analyzed by flow cytometry. […] To evaluate the mechanisms of changes in chemotaxis induced by ATRA, a chemokine array was performed. Supernatants from ATRA- (or DMSO)-treated WT and IDH mutant cultures were used to assess changes in chemokine expression using a chemokine array kit (R&D systems). Results were interpreted visually as well as quantified using an imaging software (ImageJ). […] To substantiate the role of CCL2 in NK and T cell chemotaxis, transwell assays were repeated as described earlier, in the presence of CCL2-blocking antibody (R&D systems).

[5] = test system: CCL2 and CXCL12 in IDH mutant cells; assay: Chemokine array on culture supernatants; assay type: cell-based, human
Description: as §1

[6] = mouse, in vivo
Description: Mice. 6-8 week old Balb/c nude mice (CAnN.Cg-Foxn1nu/Crl) were purchased from Charles River Laboratories. Mice were injected with 10^6 IDH WT or mutant primary glioma cells sub-cutaneously in the right flank. When the tumors were about 25 mm^2, ATRA treatment was started. 10 mg/Kg ATRA was administered to mice intra-peritoneally (i.p.) every alternate day until termination of the experiment. DMSO-treated mice were used as controls. The mice were monitored for signs of drug toxicity such as weight-loss, lethargy, skin lesions and diarrhea. The tumors were measured every 3 days, and the mice were sacrificed when the tumors were about 400 mm^2. For NK depletion experiments, 6-week old B6 nude mice (B6.Cg-Foxn1nu/J) were purchased from The Jackson Laboratory. NK depletion was performed by injecting mice with 200 μg of anti-NK1.1 antibody (Biolegend) i.p. on the day ATRA treatment was started. Mice injected with 200 μg of an isotype antibody were used as controls. Mice were bled and evaluated for circulating NKs by flow cytometry.
Retinoic acid has been used as a chemotherapeutic agent in a wide variety of cancers, in pre-clinical as well as clinical applications. 13-cis-RA is the most common form of RA used in clinics, and is effective in a variety of neoplasms. Therefore, the efficacy of 13-cis RA was compared with ATRA and Bexarotene (a synthetic retinoic acid analogue) in IDH mutant gliomas.

[7] = towards ATRA-treated IDH mutant cells vs DMSO-treated controls, 48 hours
[8] = towards ATRA-treated IDH mutant cells, 48 hours

Question: Which “apoptosis by caspase activity” value ([1]; HT-1080, different doses) does the source give for CC1=C(/C=C/C(C)=C/C=C/C(C)=C/C(=O)O)C(C)(C)CCC1 [ATRA, all-trans retinoic acid] here?
Answer: induced apoptotic cell death

Question: What about the cell viability ([1]; HT-1080, different doses) of the same compound?
Answer: decreased cell viability

Question: And the “7-AAD levels (flow cytometry)” value ([1]; IDH WT and IDH mutant chondrosarcoma cells, different doses)?
Answer: increased 7-AAD levels corresponding to increased apoptotic cell death in a dose-dependent manner

Question: And the “ex vivo killing by human natural killer cells” value [2]?
Answer: more susceptible to killing

Question: And the “ex vivo killing by mouse natural killer cells” value [2]?
Answer: more susceptible to killing

Question: What about the “expression of NKG2D ligand MICA” value [3] of the same compound?
Answer: increased expression

Question: And the “expression of NKG2D ligand MICB” value [3]?
Answer: increased expression

Question: And the “expression of NKG2D ligand ULBP1” value [3]?
Answer: increased expression

Question: What about the “expression of NKG2D ligand ULBP3” value [3] of the same compound?
Answer: increased expression

Question: What about the “NK and T cell migration in the presence of CCL2-blocking antibody” value ([4]; ATRA-treated IDH mutant cells) of the same compound?
Answer: reversed the increased NK (FIG. 6M) and T cell (FIG. 6N) migration

Question: And the “migration of Tregs in the presence of CCL2-blocking antibody” value ([4]; ATRA-treated IDH mutant cells)?
Answer: did not impact the migration of Tregs

Question: What about the “migration of CD8+ T cells” value [4, 7] of the same compound?
Answer: increased migration

Question: What about the “migration of M1 macrophages” value [4, 7] of the same compound?
Answer: increased migration

Question: What about the “migration of NK cells” value [4, 7] of the same compound?
Answer: increased migration

Question: What about the “migration of M2 macrophages” value [4, 8] of the same compound?
Answer: decreased migration

Question: And the “migration of Monocytes” value [4, 8]?
Answer: decreased migration

Question: And the “migration of Tregs” value [4, 8]?
Answer: decreased migration

Question: What about the “levels of CXCL12” value ([5]; ATRA-treated IDH mutant cells vs DMSO-treated controls) of the same compound?
Answer: lower levels of CXCL12

Question: What about the CCL2 production ([5]; supernatants of ATRA- or DMSO-treated WT and IDH mutant cultures) of the same compound?
Answer: CCL2 production was only observed in ATRA treated IDH mutant cells

Question: What about the “toxicity in treated mice (weight loss and wasting)” value [6] of the same compound?
Answer: not observed in ATRA-treated mice

— patent US10821091B2, “Retinoid compositions and methods of increasing immune cell-mediated killing of IDH mutant cancer cells” (UNIVERSITY OF PITTSBURGH—OF THE COMMONWEALTH SYSTEM OF …, priority 2017, dated 2020)
